From patent US9433621B2, “Substituted pyridine and pyrimidine derivatives and their use in treating viral infections” (Merck Sharp & Dohme Corp., priority 2010, dated 2016)

tested on: HCV replicon; test: Cell-Based HCV Replicon Assay; conditions: Hepatitis C virus; HCV Replicon assay, EC90 given as numeric bound, Table VI; read-out: EC90
Procedure, shortened: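 Replicon cells, 5000/well, treated 3 days with 10 serial 2-fold dilutions (top 25 μM to 1 μM) in 0.5% DMSO, 10% FBS. Replicon RNA measured by multiplex Taqman RT-PCR (NS5B amplicon, GAPDH control); EC50/EC90 = concentration giving ΔCT of 1/3.2 over baseline from sigmoid fit.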

| SMILES | EC90 [nM] |
| --- | --- |
| CO[C@H](C)CN(C)c1nc(C)c(-c2nc3c(C)nccc3s2)c(N[C@@H]2C[C@H](C(C)(C)O)[C@@H](O)[C@H]2O)n1 [Example 5171] | > 1000 |
| Cc1nc(NC2(CS(=O)(=O)C(C)(C)C)CCCCC2)nc(N[C@@H]2C[C@H](C(C)(C)O)[C@@H](O)[C@H]2O)c1-c1nc2c(C)nccc2s1 [Example 5197] | > 1000 |
| COCC1(Nc2nc(C)c(-c3nc4c(C)nccc4s3)c(N[C@@H]3C[C@H](C(C)(C)O)[C@@H](O)[C@H]3O)n2)CCCCC1 [Example 5198] | > 1000 |

same assay, conditions: Hepatitis C virus; HCV Replicon assay, EC90 range, Table VI; read-out: EC90

| SMILES | EC90 [nM] |
| --- | --- |
| CO[C@@H]1CCC[C@@H]1Nc1nc(C)c(-c2nc3c(C)nccc3s2)c(N[C@@H]2C[C@H](C(C)(C)Cl)[C@@H](O)[C@H]2O)n1 [Example 5145] | < 500 |
| CO[C@H]1CCC[C@@H]1Nc1nc(C)c(-c2nc3c(C)nccc3s2)c(N[C@@H]2C[C@H](CO)[C@@H](O)[C@H]2O)n1 [Example 5146] | < 500 |
| CO[C@H]1CCC[C@@H]1Nc1nc(C)c(-c2nc3c(C4CC4)nccc3s2)c(N[C@@H]2C[C@H](CO)[C@@H](O)[C@H]2O)n1 [Example 5147] | < 500 |
| Cc1nc(N[C@@H]2CCCC[C@H]2O)nc(N[C@@H]2C[C@H](CO)[C@@H](O)[C@H]2O)c1-c1nc2c(C)nccc2s1 [Example 5148] | < 500 |
| Cc1nc(N[C@H]2CCC[C@H]2O)nc(N[C@@H]2C[C@H](CO)[C@@H](O)[C@H]2O)c1-c1nc2c(C)nccc2s1 [Example 5149] | < 500 |
| Cc1nc(N[C@H]2CCC[C@@H]2O)nc(N[C@@H]2C[C@H](CO)[C@@H](O)[C@H]2O)c1-c1nc2c(C)nccc2s1 [Example 5150] | < 500 |
| Cc1nc(N)nc(N[C@H]2CCC[C@@H]2O)c1-c1nc2c(C)nccc2s1 [Example 5151] | < 500 |
| Cc1nc(NC2(C)CCC2)nc(N[C@@H]2C[C@H](CS(C)(=O)=O)[C@@H](O)[C@H]2O)c1-c1nc2c(C)nccc2s1 [Example 5152] | < 500 |
| Cc1nc(NC2(C)CCC2)nc(N[C@@H]2C[C@H](C(C)(C)O)[C@@H](O)[C@H]2O)c1-c1nc2c(C)nccc2s1 [Example 5153] | < 500 |
| Cc1nc(NCC(F)(F)F)nc(N[C@H]2CCC[C@@H]2O)c1-c1nc2c(C)nccc2s1 [Example 5154] | < 500 |
| COCCNc1nc(C)c(-c2nc3c(C)nccc3s2)c(N[C@H]2CCC[C@@H]2O)n1 [Example 5155] | < 500 |
| Cc1nc(NCC2CC2)nc(N[C@H]2CCC[C@@H]2O)c1-c1nc2c(C)nccc2s1 [Example 5156] | < 500 |
| Cc1nc(NCC2CC2)nc(N[C@H]2C=C[C@@H](CO)C2)c1-c1nc2c(C)nccc2s1 [Example 5157] | < 500 |
| Cc1nc(NCC2(O)CCCC2)nc(N[C@H]2C=C[C@@H](CO)C2)c1-c1nc2c(C)nccc2s1 [Example 5158] | < 500 |
| Cc1nc(NCC2(O)CCCC2)nc(N[C@H]2CC[C@@H](CO)C2)c1-c1nc2c(C)nccc2s1 [Example 5159] | < 500 |
| Cc1nc(N[C@@H](CO)Cc2ccccc2)nc(N[C@@H]2C[C@H](C(C)(C)O)[C@@H](O)[C@H]2O)c1-c1nc2c(C)nccc2s1 [Example 5160] | 500 to 5000 |
| COCCCNc1nc(C)c(-c2nc3c(C)nccc3s2)c(N[C@@H]2C[C@H](C(C)(C)O)[C@@H](O)[C@H]2O)n1 [Example 5161] | < 500 |
| Cc1nc(N[C@@H](CO)CC(C)C)nc(N[C@@H]2C[C@H](C(C)(C)O)[C@@H](O)[C@H]2O)c1-c1nc2c(C)nccc2s1 [Example 5162] | < 500 |
| Cc1nc(NC(C)CCCC(C)(C)O)nc(N[C@@H]2C[C@H](C(C)(C)O)[C@@H](O)[C@H]2O)c1-c1nc2c(C)nccc2s1 (stereo partly drawn) [Example 5163] | < 500 |

| SMILES | EC90 [nM] |
| --- | --- |
| Cc1nc(NCC(F)(F)C(F)(F)C(F)(F)F)nc(N[C@H]2C=C[C@@H](CO)C2)c1-c1nc2c(C)nccc2s1 [Example 5164] | < 500 |
| Cc1nc(NCC(F)(F)C(F)(F)F)nc(N[C@H]2C=C[C@@H](CO)C2)c1-c1nc2c(C)nccc2s1 [Example 5165] | < 500 |
| Cc1nc(NCC(F)(F)C(F)(F)C(F)(F)F)nc(N[C@H]2CC[C@@H](CO)C2)c1-c1nc2c(C)nccc2s1 [Example 5166] | < 500 |
| Cc1nc(N)nc(N[C@H]2C=C[C@@H](CO)C2)c1-c1nc2c(C)nccc2s1 [Example 5167] | < 500 |
| Cc1nc(NCC(F)(F)C(F)(F)F)nc(N[C@H]2CC[C@@H](CO)C2)c1-c1nc2c(C)nccc2s1 [Example 5168] | < 500 |
| Cc1nc(N[C@H](C)c2c(F)c(F)c(C)c(F)c2F)nc(N[C@H]2C=C[C@@H](CO)C2)c1-c1nc2c(C)nccc2s1 [Example 5169] | < 500 |
| Cc1nc(NCC2(O)CC2)nc(N[C@H]2C=C[C@@H](CO)C2)c1-c1nc2c(C)nccc2s1 [Example 5170] | < 500 |
| Cc1nc(N[C@H](C)C2CC2)nc(N[C@@H]2C[C@H](C(C)(F)F)[C@@H](O)[C@H]2O)c1-c1nc2c(C3CC3)nccc2s1 [Example 5172] | < 500 |
| Cc1nc(NC2CC2)nc(N[C@@H]2C[C@H](C(C)(F)F)[C@@H](O)[C@H]2O)c1-c1nc2c(C3CC3)nccc2s1 [Example 5173] | < 500 |
| CCCNc1nc(C)c(-c2nc3c(C4CC4)nccc3s2)c(N[C@@H]2C[C@H](C(C)(F)F)[C@@H](O)[C@H]2O)n1 [Example 5174] | < 500 |
| Cc1nc(NCC(C)C)nc(N[C@@H]2C[C@H](C(C)(F)F)[C@@H](O)[C@H]2O)c1-c1nc2c(C3CC3)nccc2s1 [Example 5175] | < 500 |
| Cc1nc(NCC(C)(C)C)nc(N[C@@H]2C[C@H](C(C)(F)F)[C@@H](O)[C@H]2O)c1-c1nc2c(C3CC3)nccc2s1 [Example 5176] | < 500 |
| Cc1nc(NCC2CC(F)(F)C2)nc(N[C@@H]2C[C@H](C(C)(F)F)[C@@H](O)[C@H]2O)c1-c1nc2c(C3CC3)nccc2s1 [Example 5177] | < 500 |
| Cc1nc(NC2CC2)nc(N[C@@H]2C[C@H](C(F)F)[C@@H](O)[C@H]2O)c1-c1nc2c(C3CC3)nccc2s1 [Example 5178] | < 500 |
| CCCNc1nc(C)c(-c2nc3c(C4CC4)nccc3s2)c(N[C@@H]2C[C@H](C(F)F)[C@@H](O)[C@H]2O)n1 [Example 5179] | < 500 |
| Cc1nc(NCC(C)C)nc(N[C@@H]2C[C@H](C(F)F)[C@@H](O)[C@H]2O)c1-c1nc2c(C3CC3)nccc2s1 [Example 5180] | < 500 |
| Cc1nc(NCC(C)(C)C)nc(N[C@@H]2C[C@H](C(F)F)[C@@H](O)[C@H]2O)c1-c1nc2c(C3CC3)nccc2s1 [Example 5181] | < 500 |
| Cc1nc(NCC2CC(F)(F)C2)nc(N[C@@H]2C[C@H](C(F)F)[C@@H](O)[C@H]2O)c1-c1nc2c(C3CC3)nccc2s1 [Example 5182] | < 500 |
| Cc1nc(NCC2CCC2)nc(N[C@@H]2C[C@H](C(C)(F)F)[C@@H](O)[C@H]2O)c1-c1nc2c(C3CC3)nccc2s1 [Example 5183] | < 500 |

| SMILES | EC90 [nM] |
| --- | --- |
| Cc1nc(N[C@H](C)C2CCC2)nc(N[C@@H]2C[C@H](C(C)(F)F)[C@@H](O)[C@H]2O)c1-c1nc2c(C3CC3)nccc2s1 [Example 5184] | < 500 |
| Cc1nc(NCC2CCC2)nc(N[C@@H]2C[C@H](C(F)F)[C@@H](O)[C@H]2O)c1-c1nc2c(C3CC3)nccc2s1 [Example 5185] | < 500 |
| Cc1nc(N[C@H](C)C2CCC2)nc(N[C@@H]2C[C@H](C(F)F)[C@@H](O)[C@H]2O)c1-c1nc2c(C3CC3)nccc2s1 [Example 5186] | < 500 |
| COc1nc(C)c(-c2nc3c(C4CC4)nccc3s2)c(N[C@@H]2C[C@H](C(C)(F)F)[C@@H](O)[C@H]2O)n1 [Example 5187] | 5000 to 25000 |
| Cc1nc(N)nc(N[C@@H]2C[C@H](C(C)(F)F)[C@@H](O)[C@H]2O)c1-c1nc2c(C3CC3)nccc2s1 [Example 5188] | < 500 |
| C#CCCNc1nc(C)c(-c2nc3c(C4CC4)nccc3s2)c(N[C@@H]2C[C@H](C(C)(F)F)[C@@H](O)[C@H]2O)n1 [Example 5189] | < 500 |
| Cc1nc(N)nc(N[C@@H]2C[C@H](C(F)F)[C@@H](O)[C@H]2O)c1-c1nc2c(C3CC3)nccc2s1 [Example 5190] | < 500 |
| Cc1nc(NCC2(C)CC2)nc(N[C@@H]2C[C@H](C(F)F)[C@@H](O)[C@H]2O)c1-c1nc2c(C3CC3)nccc2s1 [Example 5191] | < 500 |
| Cc1nc(NCCC2CC2)nc(N[C@@H]2C[C@H](C(F)F)[C@@H](O)[C@H]2O)c1-c1nc2c(C3CC3)nccc2s1 [Example 5192] | < 500 |
| Cc1nc(NCCC(C)C)nc(N[C@@H]2C[C@H](C(F)F)[C@@H](O)[C@H]2O)c1-c1nc2c(C3CC3)nccc2s1 [Example 5193] | < 500 |
| CSCCNc1nc(C)c(-c2nc3c(C4CC4)nccc3s2)c(N[C@@H]2C[C@H](C(F)F)[C@@H](O)[C@H]2O)n1 [Example 5194] | < 500 |
| COC1(CNc2nc(C)c(-c3nc4c(C)nccc4s3)c(N[C@@H]3C[C@H](C(C)(C)O)[C@@H](O)[C@H]3O)n2)CCCCC1 [Example 5195] | < 500 |
| CCC(CNc1nc(C)c(-c2nc3c(C)nccc3s2)c(N[C@@H]2C[C@H](C(C)(C)O)[C@@H](O)[C@H]2O)n1)OC (stereo partly drawn) [Example 5196] | < 500 |
| Cc1nc(NCC2CC2)nc(NC2(CO)CCCCC2)c1-c1nc2c(C)nccc2s1 [Example 5199] | < 500 |
| COCCNc1nc(C)c(-c2nc3c(C)nccc3s2)c(NC2(CO)CCCCC2)n1 [Example 5200] | < 500 |
| COCC1(Nc2nc(NCC3CC3)nc(C)c2-c2nc3c(C)nccc3s2)CCCCC1 [Example 5201] | < 500 |
| Cc1nc(NC(=N)NCC2CC2)nc(N[C@@H]2C[C@H](C(C)(C)O)[C@@H](O)[C@H]2O)c1-c1nc2c(C)nccc2s1 [Example 5202] | > 25000 |
| Cc1nc(N[C@H](C)c2c(F)c(F)c(C)c(F)c2F)nc(N[C@@H]2C[C@H](CS(=O)(=O)c3ccc(F)cc3)[C@@H](O)[C@H]2O)c1-c1nc2c(C3CC3)nccc2s1 [Example 5203] | 500 to 5000 |
| Cc1nc(N[C@H](C)c2c(F)c(F)c(C)c(F)c2F)nc(N[C@@H]2C[C@H](C(C)(C)O)[C@@H](O)[C@H]2O)c1-c1nc2c(C)nccc2s1 [Example 5204] | < 500 |
